The text below walks through data of patent USRE47689E1, “Compounds for treating spinal muscular atrophy” (PTC Therapeutics, Inc., priority 2011, dated 2019).

What is called melting point is the temperature of the solid-liquid transition.

Like-named read-outs stand apart in the source and are kept apart here.

The test system of one data set is Smn protein. Put plainly: Smn protein assay in cultured cells (SMN HTRF). The class given is cell-based, human. The following applies: for EC1.5x (concentration giving 1.5-fold Smn protein increase): read-out: EC1.5x for Smn protein expression. A digest of the protocol:
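Lysates in RIPA with protease inhibitors are incubated overnight at room temperature with HTRF anti-SMN antibodies. EC1.5x is derived from fold increase in ΔF over vehicle.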
(TR-FRET usually uses a lanthanide donor and a delayed reading to cut background.)

Data set [1] concerns SMN2 minigene (full length SMN2 minigene mRNA containing SMN2 exon 7). Briefly: SMN2 minigene mRNA splicing RT-qPCR assay in cultured cells. Type of data set: cell-based, human. To be noted: Homo sapiens, HEK293-H, read-out: EC1.5x for production of full length SMN2 mRNA. A digest of the protocol:
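HEK293H cells stably carrying the SMN2-A minigene treated 24 h at 37° C with compound (DMSO, 200× stock), then lysed. Multiplex RT-qPCR (SMN primers 0.4 μM final; 40 cycles) measures full-length exon 7-containing minigene mRNA, normalized to GAPDH and to vehicle; EC1.5x derived and binned by stars.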
On the technique in general: In qPCR the cycle at which signal appears reflects the starting amount.

[2] abbreviates: SMA patient fibroblast cells, 48 hours, 7-point concentration data, fold increase relative to vehicle control (SMN HTRF).
The mark [3] stands for this setting: HEK293H cells stably transfected with SMN2-A minigene, 24 hours, 7-point concentration curve, 1.5-fold relative to vehicle-treated cells.
Setting [4] is: SMA Type 1 patient fibroblast cells (GM03813), 48 hours, 7-point concentration curve, SMN HTRF, concentration producing 1.5 times Smn protein vs DMSO vehicle control.

With `Cc1cn2cc(-c3cc4ccc(N5CCN[C@@H](C)C5)cc4oc3=O)nc2s1` [Compound 232, 3-(2-methylimidazo[2,1-b][1,3]thiazol-6-yl)-7-[(3S)-3-methylpiperazin-1-yl]-2H-chromen-2-one], the melting point lay in the range of 177 to 182 °C. Moreover, in the data set on Smn protein (setting [2]), the “maximum fold (Fold) increase of Smn protein” value (“maximum fold (Fold) increase” below) is “* (maximum fold increase of ≤1.2)”. Further, the EC (1.5-fold) in data set [1] (setting [3]) was in the range of 0.3 to 1 µM.
Regarding `C[C@H]1CN(c2ccc3cc(-c4cn5ccsc5n4)c(=O)oc3c2)CCN1` [Compound 205, 3-(imidazo[2,1-b][1,3]thiazol-6-yl)-7-[(3S)-3-methylpiperazin-1-yl]-2H-chromen-2-one], the melting point lay within 230 to 233 °C. For the same molecule, the “maximum fold (Fold) increase” value in the data set with Smn protein (setting [2]) is “*** (fold increase between >1.35 and ≤1.5)”. In addition, in data set [1] (setting [3]), the EC (1.5-fold) is below 0.1 µM.
`Cc1cn2cc(-c3cc4ccc(O[C@@H]5CCNC5)cc4oc3=O)nc2cn1` [Compound 594, 3-(6-methylimidazo[1,2-a]pyrazin-2-yl)-7-[(3R)-pyrrolidin-3-yloxy]-2H-chromen-2-one] returned a melting point of 254 to 258 °C. In addition, the EC1.5x (concentration giving 1.5-fold Smn protein increase) in the data set on Smn protein (setting [4]) was below 300 nM. Besides, the “maximum fold (Fold) increase” value with Smn protein (setting [2]) was “***** (fold increase >1.65)”. Besides, the EC (1.5-fold) in data set [1] (setting [3]) was below 0.1 µM.
The molecule `O=C(Oc1ccc2cc(-c3nc4c(Cl)cccc4s3)c(=O)oc2c1)N1CCNCC1` [Cpd 42, 3-(4-chloro-1,3-benzothiazol-2-yl)-2-oxo-2H-chromen-7-yl piperazine-1-carboxylate] returned a melting point of 236 to 239 °C. Besides, in the data set with Smn protein (setting [2]), the “maximum fold (Fold) increase” value is “* (maximum fold increase of ≤1.2)”. Further, in data set [1] (24 h), the EC (1.5-fold) was in the range of 1 to 3 µM.
As for `Cc1ccn2cc(-c3cc4ccc(N5C[C@@H](C)N[C@@H](C)C5)cc4oc3=O)nc2n1` [Compound 225, 7-[(3R,5S)-3,5-dimethylpiperazin-1-yl]-3-(7-methylimidazo[1,2-a]pyrimidin-2-yl)-2H-chromen-2-one], the melting point was in the range of 246 to 252 °C. Also, in the data set with Smn protein (setting [2]), the “maximum fold (Fold) increase” value was “*** (fold increase between >1.35 and ≤1.5)”. The EC (1.5-fold) in data set [1] (setting [3]) lay in the range of 0.3 to 1 µM.
Molecule `Cc1cn2cc(-c3cc4ccc(N5CCN(C6CCC6)CC5)cc4oc3=O)cc2c(C)n1` [Compound 814, 7-(4-cyclobutylpiperazin-1-yl)-3-(1,3-dimethylpyrrolo[1,2-a]pyrazin-7-yl)-2H-chromen-2-one] returned a melting point of 217 to 220 °C. Besides, in the data set with Smn protein (setting [4]), the EC1.5x (concentration giving 1.5-fold Smn protein increase) is below 300 nM. The “maximum fold (Fold) increase” value in the data set on Smn protein (setting [2]) is listed as “***** (fold increase >1.65)”. Moreover, the EC (1.5-fold) in data set [1] (setting [3]) was below 0.1 µM.
Consider `CCc1ccn2cc(-c3cc4ccc(N5CCNCC5)cc4oc3=O)nc2c1` [Compound 287, 3-(7-ethylimidazo[1,2-a]pyridin-2-yl)-7-(piperazin-1-yl)-2H-chromen-2-one], for which the melting point was 253 to 263 °C. Also, in the data set on Smn protein (setting [2]), the “maximum fold (Fold) increase” value is given as “* (maximum fold increase of ≤1.2)”. In addition, in data set [1] (setting [3]), the EC (1.5-fold) fell in the range of 0.3 to 1 µM.
For the molecule `Cc1cn2cc(-c3cc4ccc(N5CCC(C)(N)CC5)cc4oc3=O)nc2c(C)n1` [Compound 920, 7-(4-amino-4-methylpiperidin-1-yl)-3-(6,8-dimethylimidazo[1,2-a]pyrazin-2-yl)-2H-chromen-2-one], the melting point lay in the range of 190 to 192 °C. The EC1.5x (concentration giving 1.5-fold Smn protein increase) with Smn protein (setting [4]) is below 300 nM. The “maximum fold (Fold) increase” value with Smn protein (setting [2]) is given as “***** (fold increase >1.65)”. For the same molecule, the EC (1.5-fold) in data set [1] (setting [3]) is below 0.1 µM.
Regarding `CN1CCCN(c2ccc3cc(-c4nc5ccccc5s4)c(=O)oc3c2)CC1` [Cpd 145, 3-(1,3-benzothiazol-2-yl)-7-(4-methyl-1,4-diazepan-1-yl)-2H-chromen-2-one], the melting point was in the range of 217 to 220 °C. In addition, the “maximum fold (Fold) increase” value with Smn protein (setting [2]) is “** (fold increase between >1.2 and ≤1.35)”. Also, the EC (1.5-fold) in data set [1] (setting [3]) fell in the range of 0.1 to 0.3 µM.
Regarding `O=c1oc2cc(OC3CCNCC3)ccc2cc1-c1nc2ccccc2o1` [Cpd 20, 3-(1,3-benzoxazol-2-yl)-7-(piperidin-4-yloxy)-2H-chromen-2-one], the melting point fell in the range of 198 to 201 °C. Besides, the “maximum fold (Fold) increase” value with Smn protein (setting [2]) is “* (maximum fold increase of ≤1.2)”. Also, the EC (1.5-fold) in data set [1] (setting [3]) lay within 3 to 30 µM.
Molecule `CCN1CCC(F)(c2ccc3cc(-c4cn5cc(C)nc(C)c5n4)c(=O)oc3c2)CC1` [Cpd 958, 3-(6,8-dimethylimidazo[1,2-a]pyrazin-2-yl)-7-(1-ethyl-4-fluoropiperidin-4-yl)-2H-chromen-2-one] registered a melting point of 162 to 164 °C. Further, in the data set with Smn protein, the “maximum fold (Fold) increase” value is “***** (key: *: maximum fold increase of ≤1.2; **: fold increase between >1.2 and ≤1.35; ***: fold increase between >1.35 and ≤1.5; ****: fold increase between >1.5 and ≤1.65; *****: fold increase >1.65)”; the EC1.5x (concentration giving 1.5-fold Smn protein increase) was below 300 nM. In addition, the EC (1.5-fold) in data set [1] (24 h) was below 0.1 µM.
Consider `Cc1cc(Cl)cn2cc(-c3cc4ccc(N5CCNCC5)cc4oc3=O)nc12` [Compound 263, 3-(6-chloro-8-methylimidazo[1,2-a]pyridin-2-yl)-7-(piperazin-1-yl)-2H-chromen-2-one], for which the melting point lay within 224 to 233 °C. The “maximum fold (Fold) increase” value in the data set on Smn protein (setting [2]) is “* (maximum fold increase of ≤1.2)”. Also, the EC (1.5-fold) in data set [1] (setting [3]) was 3 to 30 µM.
The molecule `Cc1cn2cc(-c3cc4ccc(N5CCN(CCO)CC5)cc4oc3=O)cc2cn1` [Compound 684, 7-[4-(2-hydroxyethyl)piperazin-1-yl]-3-(3-methylpyrrolo[1,2-a]pyrazin-7-yl)-2H-chromen-2-one] registered a melting point of 212 to 215 °C. Moreover, the EC1.5x (concentration giving 1.5-fold Smn protein increase) in the data set on Smn protein (setting [4]) was below 300 nM. Also, the “maximum fold (Fold) increase” value in the data set on Smn protein (setting [2]) is “**** (fold increase between >1.5 and ≤1.65)”. Further, the EC (1.5-fold) in data set [1] (setting [3]) was below 0.1 µM.
The molecule `Cc1cc(C)c2nc(-c3cc4ccc(N5CCN[C@@H](C)C5)cc4oc3=O)cn2c1` [Compound 425, 3-(6,8-dimethylimidazo[1,2-a]pyridin-2-yl)-7-[(3S)-3-methylpiperazin-1-yl]-2H-chromen-2-one] registered a melting point of 221 to 226 °C. Further, the EC1.5x (concentration giving 1.5-fold Smn protein increase) with Smn protein (setting [4]) is 1000 to 3000 nM. In addition, the “maximum fold (Fold) increase” value in the data set with Smn protein (setting [2]) was “*** (fold increase between >1.35 and ≤1.5)”. For the same molecule, the EC (1.5-fold) in data set [1] (setting [3]) fell in the range of 0.1 to 0.3 µM.
Turning to `O=c1oc2cc(N3CCNCC3)ccc2cc1-c1noc(-c2ccccc2)n1` [Cpd 50, 3-(5-phenyl-1,2,4-oxadiazol-3-yl)-7-(piperazin-1-yl)-2H-chromen-2-one], the melting point was in the range of 214 to 221 °C. In addition, the “maximum fold (Fold) increase” value with Smn protein (setting [2]) was “* (maximum fold increase of ≤1.2)”. For the same molecule, the EC (1.5-fold) in data set [1] (setting [3]) lay within 1 to 3 µM.
Molecule `Cc1cn2cc(-c3cc4ccc(CCN5CCNCC5)cc4oc3=O)nc2c(C)n1` [Compound 866, 3-(6,8-dimethylimidazo[1,2-a]pyrazin-2-yl)-7-[2-(piperazin-1-yl)ethyl]-2H-chromen-2-one] registered a melting point of 186 to 188 °C. The EC1.5x (concentration giving 1.5-fold Smn protein increase) in the data set on Smn protein (setting [4]) was in the range of 300 to 1000 nM. In addition, the “maximum fold (Fold) increase” value in the data set with Smn protein (setting [2]) was “*** (fold increase between >1.35 and ≤1.5)”. In addition, in data set [1] (setting [3]), the EC (1.5-fold) was in the range of 0.1 to 0.3 µM.
The molecule `C[C@@H]1CN(c2cc(F)c3cc(-c4cn5cccc(Cl)c5n4)c(=O)oc3c2)CCN1` [Compound 390, 3-(8-chloroimidazo[1,2-a]pyridin-2-yl)-5-fluoro-7-[(3R)-3-methylpiperazin-1-yl]-2H-chromen-2-one] yielded a melting point of 266 to 276 °C. Besides, the “maximum fold (Fold) increase” value in the data set with Smn protein (setting [2]) was “*** (fold increase between >1.35 and ≤1.5)”. Also, in data set [1] (setting [3]), the EC (1.5-fold) was 0.1 to 0.3 µM.
In turn, `Cc1cn2cc(-c3cc4ccc(O[C@@H]5CCN(C(C)C)C5)cc4oc3=O)nc2c(C)n1` [Compound 891, 3-(6,8-dimethylimidazo[1,2-a]pyrazin-2-yl)-7-{[(3R)-1-(propan-2-yl)pyrrolidin-3-yl]oxy}-2H-chromen-2-one] displayed a melting point of 176 to 179 °C. For the same molecule, the EC1.5x (concentration giving 1.5-fold Smn protein increase) in the data set with Smn protein (setting [4]) was in the range of 300 to 1000 nM. The “maximum fold (Fold) increase” value with Smn protein (setting [2]) is “***** (fold increase >1.65)”. Also, in data set [1] (setting [3]), the EC (1.5-fold) was 0.1 to 0.3 µM.
In the case of `Cc1ccn2cc(-c3cc4ccc(N5CCN[C@H](C)C5)cc4oc3=O)nc2n1` [Compound 228, 3-(7-methylimidazo[1,2-a]pyrimidin-2-yl)-7-[(3R)-3-methylpiperazin-1-yl]-2H-chromen-2-one], the melting point lay within 297 to 300 °C. The “maximum fold (Fold) increase” value in the data set on Smn protein (setting [2]) is “** (fold increase between >1.2 and ≤1.35)”. Moreover, the EC (1.5-fold) in data set [1] (setting [3]) lay within 0.1 to 0.3 µM.
Take `Cc1cccn2cc(-c3cc4ccc(N5CCCNCC5)cc4oc3=O)nc12` [Compound 281, 7-(1,4-diazepan-1-yl)-3-(8-methylimidazo[1,2-a]pyridin-2-yl)-2H-chromen-2-one]: the melting point was in the range of 138 to 140 °C. In addition, the “maximum fold (Fold) increase” value in the data set with Smn protein (setting [2]) was “** (fold increase between >1.2 and ≤1.35)”. Further, the EC (1.5-fold) in data set [1] (setting [3]) fell in the range of 0.3 to 1 µM.
`Cc1cn2cc(-c3cc4ccc(N5C[C@H]6CN(C)C[C@H]6C5)cc4oc3=O)cc2c(C)n1` [Compound 756, 3-(1,3-dimethylpyrrolo[1,2-a]pyrazin-7-yl)-7-[(3aR,6aS)-5-methylhexahydropyrrolo[3,4-c]pyrrol-2(1H)-yl]-2H-chromen-2-one] yielded a melting point of 146 to 150 °C. In addition, the “maximum fold (Fold) increase” value in the data set on Smn protein (setting [2]) is “*** (fold increase between >1.35 and ≤1.5)”. In addition, the EC (1.5-fold) in data set [1] (setting [3]) was below 0.1 µM.
